# How the values were obtained:
# HemSCs [1] = test: HemSC proliferation dose-response; format: cell-based, human
# Protocol: (§1) FIG. 1A depicts dose-response curves of HemSCs (squares), NHDF (triangles), and BM-MSCs (circles) treated with Rapamycin. Error bars denote standard deviation (SD) (n=32). FIG. 1B depicts a graph of the quantification of PCNA-positive cells in HemSCs treated with Rapamycin. Error bars denote SD (n=8). *P<0.05 compared with the non-treated group. FIG. 1C depicts the results of a Western blot for phospho4EBP-1(565) and total 4EBP-1 in HemSCs serum-starved for 24 hours, pretreated with vehicle alone (“0”) or rapamycin for 20 minutes and then stimulated with media containing serum and growth factors for 30 minutes. FIG. 1D depicts a graph of the bands in FIG. 1C quantified using ImageJ; normalized to β-actin.
# (§2) Proliferating cell nuclear antigen (PCNA) served as an additional measure of proliferation (Prelich et al., 1987) (Hall and Levison, 1990).
# (§3) To do this, the anti-proliferative drug Roscovitine, a purine analogue andcyclin-dependent kinase inhibitor (De Azevedo et al., 1997) (Meijer et al., 1997) was used. First, the effect of Roscovitine on HemSCs proliferation was titrated in vitro. […] Next, HemSCs were pre-treated in vitro for three days with either Roscovitine or Rapamycin, the drugs washed out, and the cells then injected with untreated cbEPC into mice.
# BM-MSCs = test: BM-MSC proliferation dose-response; format: cell-based, human; details: FIG. 1A
# Protocol: as §1, §2
# [2] = test system: normal human dermal fibroblasts (NHDF); test: NHDF proliferation dose-response; format: cell-based; details: FIG. 1A
# Protocol: as §1, §2
# HemSCs [3] = test: PCNA immunostaining of HemSCs; format: cell-based, human; details: 10 ng/ml
# Protocol: as §2
# Human-specific CD31 (DakoCytomation) immunostaining was performed as described (MeleroMartin et al., 2007), (Roelofs et al., 2003). PhosphoAKT/VE-cadherin double immunofluorescence was done on cryosections. Slides were fixed with 8% paraformaldehyde, blocked with 1% BSA and incubated with anti-VE-Cadherin (goat, Santa Cruz Biotechnology, Santa Cruz, Calif.) 1:100 for one hour, followed by anti-goat Texas-Red (Vector Labs, Burlingame, Calif.) 1:200. Following an additional blocking step (1% BSA, 0.1% Triton-X), AntipAKT (mouse, Cell Signaling, Danvers, Mass.) 1:100, was applied over night in 4° C. and next, anti-mouse Alexa Fluor 488 (Invitrogen) 1:300 for one hour. PCNA immunostaining was done using anti-PCNA 1:500 (mouse, Santa Cruz Biotechnology, Santa-Cruz, Calif.). For immunostaining of paraffing embedded Matrigel explants, antigen retrieval was done by citrate buffer. Sections were blocked by 5% horse serum and incubated with a secondary anti-mouse horseradish peroxidase (HRP) conjugate at 1:300 (Vector Labs, Burlingame, Calif.). For immunofluorescence, cells were fixed with methanol, blocked by 1% BSA.
# HemSCs [4] = test: Viability / cell morphology by phalloidin staining; format: cell-based, human
# mTOR = test: Western blot of phosphorylated 4EBP1 in HemSCs; format: cell-based, human; details: HemSCs serum-starved 24 hours, pretreated 20 minutes
# Protocol: as §1
# [5] = test system: HemSCs and cbEPCs in Matrigel; test: Two cell model of IH (HemSCs and cbEPCs in Matrigel), systemic drug; format: in vivo, nude mice; details: daily intra-peritoneal injection; for vascularization of Matrigel implants / formation of blood vessels (MVD): compared with vehicle
# Protocol: (§4) Next, the effect of systemic Rapamycin was tested in a two cell model of IH described previously (Greenberger et al., 2010). HemSCs and cbEPCs were mixed with Matrigel and injected subcutaneously in nude mice. This two-cell model has advantages over injecting HemSC alone: first it is more robust and thus more sensitive for detecting dose-response activity. Second, it allows one to test separately the effect of rapamycin on the HemSC versus cbEPCs, which are primary ECs isolated from cord blood that serve as prototypic young ECs. Rapamycin was administered daily by intra-peritoneal injection.
# To test this concept, mice were given i.p. injections of low dose of dexamethasone (0.25 mg/kg), low dose of Rapamycin (0.25 mg/kg) or the combination of both.
# (§5) Nude/Nude mice were purchased from Massachusetts General Hospital animal facility. Procedures were approved by the Animal Care and Use Committees of the Children's Hospital, Boston. Anesthesia was induced with 4% isofluorane and maintenance in 1-3% oxygen. Mice were anesthetized once for up to 5 min. The one cell and two cell models of IH were performed as reported (Greenberger et al., 2010; Khan et al., 2008) and microvessel density (MVD) was assessed by counting red blood cell-filled lumens (Melero-Martin et al., 2007). Values reported for each experimental condition correspond to the average MVD value±standard error of the mean (SEM) obtained from all the individual animals.
# Rapamycin, Everolimus and Temsirolimus were purchased from LC Laboratories. Drugs were dissolved in DMSO followed by solvent solution (5% polyethylene glycol, 0.2% carboxymethylcellulose and 0.25% Tween-80 in H2O). Aliquots were kept in −20° C. Mice were given daily intra-peritoneal (i.p.) injections containing 200 μl of drug or the vehicle alone.
# HemSCs in Matrigel = test: One cell model of IH (HemSC implanted alone); format: in vivo, nude mice; details: i.p. on days 1-6, explanted day 7
# Protocol: as §4, §5
# HemSCs [6] = test: Two cell model of IH with HemSCs pre-treated in vitro; format: in vivo, nude mice
# From the text: To test whether or not HemSCs are a target of Rapamycin, versus the cbEPCs or a murine host cell, HemSCs were pre-treated with Rapamycin for three days in vitro, the drug was washing out, and the Rapamycin-treated or control HemSCs were resuspended with cbEPCs in Matrigel, and injected into mice.
# as §3, §5
# cbEPCs [7] = test: Two cell model of IH with cbEPCs pre-treated in vitro; format: in vivo, nude mice
# HemSCs [8] = test: Clonogenic assay (self-renewal); format: cell-based, human; details: pre-treatment 20 ng/ml 4 days, colonies at 9 days
# Protocol: To test self-renewal capacity of HemSCs, a clonogenic assay was performed (Ingram et al., 2004).
# HemSCs were incubated with Rapamycin 20 ng/ml or DMSO, as a control, for 4 days. Following washout of the drug, cells were serially diluted to 8 cells per ml and plated in 384 well plates, 40 μl/well. Medium was replaced every 48 hours. At day 9, cells were fixed and stained with Hoechst. Following image capture by automated fluorescence microscopy, colony formation and the number of cells/colony were determined by quantifying the number of wells with Hoechst-stained nuclei and the number of Hoechst-stained nuclei/well using MetaXpress Software.
# HemSCs [9] = test: Adipogenic differentiation of HemSCs; format: cell-based, human; details: adipogenic differentiation protocol
# Protocol: (§6) Whether the multi-lineage differentiation of HemSCs could be altered by Rapamycin was assayed.
# (§7) Differentiation assays towards endothelial cells and adipocytes were done as reported (Khan et al., 2008).
# HemSCs [10] = test: Endothelial differentiation of HemSCs; format: cell-based, human; details: in vitro
# Protocol: as §6, §7
# HemSCs [11] = test: SMC/pericyte marker expression in HemSCs (qPCR, Western blot); format: cell-based, human
# HemSC = test: Calcium influx assay by fluorescence microscopy; format: cell-based, human
# Protocol: FIG. 10B depicts graphs of the effect of nifedipine on spontaneous Ca^2+ oscillations in HemSC treated with Rapamycin or DMSO for 6 days. Each line indicates the whole-cell Ca^2+ changes in an individual cell.
# To test for functional features of SMCs, calcium influx in HemSC treated with Rapamycin or DMSO for six days was analyzed.
# To monitor cellular calcium influxes, HemSC treated with Rapamycin (20 ng/ml) or DMSO for six days were labeled with a single wavelength calcium dye, Fluo-4 (1 Molecular Probes), by incubation in 5% CO2 at 37° C. for 20 min. […] Fluorescence intensity at a single wavelength (488 nm excitation) over time was followed using a Nikon Eclipse TE-2000-E Fluorescence microscope equipped with a 1000 W High Pressure Mercury Burner (Olympus Optical Company). Alterations in intracellular calcium were quantified by measuring changes in fluorescence intensity in a region of interest drawn over the entire cell including the nucleus. Background fluorescence was subtracted from fluorescence values at each time point. Results are presented as F/Fo, where F is the average fluorescence intensity in the region of interest (ROI) at each time point during time lapse imaging, and Fo is the fluorescence intensity in the ROI at time=0. […]
# cbEPCs [12] = test: Endothelial proliferation assay; format: cell-based, human; details: 20 ng/ml, 48 hours, not rescued by VEGF-A or PLGF-1
# Protocol: FIG. 11A depicts a graph of cell number of cbEPCs treated for 48 hours with Rapamycin or (20 ng/ml) DMSO as a control, in the presence of either VEGF-A (37.5 ng/ml), PLGF-1 (37.5 ng/ml) or the combination. Cell number was quantified by automatic microscopy and software analysis. Bars denote the standard deviation with n=32 for each treatment combination. FIG. 11B depicts a graph of cell number of cbEPCs treated for 48 hours with Everolimus (20 ng/ml), Temsirolimus (200 ng/ml) or DMSO as a control, in the presence of VEGF-A (37.5 ng/ml) or PLGF-1 (37.5 ng/ml). Cell number was quantified by automatic microscopy and software analysis. Bars denote the standard deviation with n=32 for each treatment combination.
# To study this effect, Rapamycin was tested on cbEPCs.
# cbEPCs at passages 6-10 were plated in 384-well plates at 1000 cells per well. 24 hours later, media was removed and replaced with EBM-2 5% fetal bovine serum media containing the recombinant human proteins VEGF-A at 37.5 ng/ml (R&D Systems) or PlGF-1 at 37.5 ng/ml (R&D Systems), and the drug compounds Rapamycin (20 ng/ml), Everolimus 20 ng/ml or Temsirolimus 200 ng/ml in replicates of 32. 48 hours later, cells were fixed and stained with Hoechst (Invitrogen). Following image capture by automated fluorescence microscopy, cell number was determined using MetaXpress Software.
# [13] = test system: human ECs, including HemECs; test: PLGF-1 expression in endothelial cells (ELISA, RT-PCR); format: cell-based; details: 48 hours of incubation
# Protocol: FIG. 11C depicts a graph of quantitative ELISA analysis of PLGF-1 protein secreted from HemECs and Human Dermal Microvascular Endothelial Cells (HDMECs) following 48 hours of incubation with Rapamycin. FIG. 11D depicts a graph of the dose-response of Rapamycin on PLGF-1 mRNA expression in HemECs. Quantitative RT-PCR analyses of HemECs PLGF-1 expression following 48 hours of incubation with Rapamycin at the indicated concentration. FIG. 11E depicts a graph of the dose-response of Rapamycin on PLGF-1 protein secretion from HemECs. PLGF-1 was measured by quantitative ELISA analysis following 48 hours of incubation with Rapamycin at the indicated concentration.
# (§8) An enzyme-linked immunoassay (ELISA) was performed using Quantikine Human VEGF and PLGF (R&D Systems). […]
# [14] = test system: HemSCs and cbEPCs in Matrigel; test: Regression of pre-existing vessels, contrast-enhanced micro-ultrasonic imaging of Matrigel implants; format: in vivo, nude mice; details: 2 mg/kg i.p.
# Protocol: To test this, contrast-enhanced micro-ultrasonic imaging was used to measure blood flow in the Matrigel implants. […] For the experiment, mice were injected with cells and imaged at day 7 to record baseline blood flow in the implants. Mice were then randomized into two groups: Rapamycin, 2 mg/kg by i.p. injection or vehicle alone by i.p. injection. At day 17, follow-up imaging was performed.
# Contrast-enhanced high resolution ultrasonic (US) imaging of the blood flow in Matrigel implants was performed using a Vevo 770 System with a 40-MHz RMV scanhead (Visual Sonics) (Loveless et al., 2009; Olive et al., 2009). MicroMarker non-targeting contrast agent (Visualsonics) was prepared according to manufacturer's guidelines. For imaging, mice were anesthetized with 2% isofluorane, coupling gel was applied to cover the entire region of interest, and 2-D B-mode scout images established the central slice of the Matrigel. The transducer was placed such that the 6 mm focal spot converged at the center of the Matrigel. Baseline images were acquired in Contrast Mode, and a 50 μL bolus of contrast agent suspension was administered via tail vein catheter during acquisition of a second contrast video.
# HemSCs [15] = test: Pro-angiogenic cytokine expression (antibody array, ELISA, qPCR); format: cell-based, human
# Protocol: To investigate whether corticosteroids and Rapamycin share common mechanisms for suppressing HemSCs-mediated vascularization, the effect of Rapamycin on expression of a panel of 43 pro-angiogenic proteins was evaluated.
# Angiogenic Cytokine Antibody Array. Conditioned media from HemSCs and HemECs, treated or untreated with dexamethasone or Rapamycin, were analyzed for protein expression using RayBio® Human Angiogenesis Antibody Array C Series 1000 (RayBiotech); according to the manufacturer's instructions. Blots were analyzed by with image J software (NIH).
# as §8
# HemSCs [16] = details: cited from earlier work
structure (smiles),measurement,setting,value
"CO[C@H]1C[C@@H]2CC[C@@H](C)[C@@](O)(O2)C(=O)C(=O)N2CCCC[C@H]2C(=O)O[C@H]([C@H](C)C[C@@H]2CC[C@@H](O)[C@H](OC)C2)CC(=O)[C@H](C)/C=C(\C)[C@@H](O)[C@@H](OC)C(=O)[C@H](C)C[C@H](C)/C=C/C=C/C=C/1C [Rapamycin, rapamycin]",inhibition of HemSCs proliferation,HemSCs [1]; concentrations of 1 ng/ml and higher,~40%
same,sensitivity of BM-MSCs proliferation compared with HemSCs,BM-MSCs,less sensitive
same,sensitivity of NHDF proliferation compared with HemSCs,[2],less sensitive
same,suppression of percentage of PCNA-positive HemSCs,HemSCs [3],80%
same,"viability (normal cell morphology, phalloidin staining)",HemSCs [4],not affected
same,constitutive and serum/growth factor stimulated levels of phosphorylated 4EBP1,mTOR,dose-dependent decrease
same,de novo formation of human CD31-positive blood vessels,[5]; anti-human CD31 staining,inhibited the de novo formation
same,vascularization of Matrigel implants / formation of blood vessels (MVD),[5],dose-dependent inhibition
same,"vessel formation, HemSC implanted alone",HemSCs in Matrigel,inhibited vessel formation
same,inhibition of microvessel density,"HemSCs [6]; HemSCs pre-treated in vitro three days, washed out, injected with untreated cbEPC (Roscovitine comparison experiment)",60%
same,inhibition of blood vessel formation,"HemSCs [6]; HemSCs pre-treated three days in vitro, drug washed out, injected with cbEPCs",80%
same,blood vessel formation after pre-treatment of cbEPCs,cbEPCs [7],no effect
same,appearance of colonies with >500 cells,HemSCs [8],abolished
same,decrease in the number of HemSC colonies formed,HemSCs [8],60%
same,"expression of adipogenic markers LPL, C/EBP-α and accumulation of lipid droplets",HemSCs [9],blocked expression
same,ability of HemSCs to differentiate towards an endothelial phenotype,HemSCs [10],No effect
same,"expression levels of calponin, NG2 and PDGF-Rβ",HemSCs [11]; FIG. 10A,unchanged
same,SM22-alpha and αSMA at the protein level,HemSCs [11]; incubation four days,increased
same,smMHC and SM22-alpha transcript levels,HemSCs [11]; incubation four days,upregulation
same,functional features of SMCs (calcium influx),HemSC; HemSC treated 20 ng/ml six days,express L-type voltage gated channels
same,growth of cbEPCs,cbEPCs [12],suppressed growth
same,endogenous PLGF-1,[13],dose-dependent suppression
same,vascularization of Matrigel implants macroscopically and by histological analysis,[14],less vascularized
same,blood flow in the implant (contrast intensity),[14]; day 7 to day 17,reduced blood flow
same,expression of VEGF-A by HemSCs at the mRNA or protein level,HemSCs [15],did not block
same,angiogenin and PLGF-1 expression,HemSCs [15]; in HemSCs and cbEPCs,downregulated
"C[C@@H]1C[C@H]2[C@@H]3CCC4=CC(=O)C=C[C@]4(C)[C@@]3(F)[C@@H](O)C[C@]2(C)[C@@]1(O)C(=O)CO [Dexamethasone, dexamethasone]","VEGF-A, IL-6, MMP-1, MCP-1 and UPAR expression",HemSCs [16],suppressed
"COC(=O)C1=C(C)NC(C)=C(C(=O)OC)C1c1ccccc1[N+](=O)[O-] [Nifedipine, nifedipine]",spontaneous Ca2+ oscillations,"HemSC; 10 uM, Rapamycin-treated HemSC",cessation of oscillations
CC[C@H](CO)Nc1nc(NCc2ccccc2)c2ncn(C(C)C)c2n1 [Roscovitine],inhibition at 3.125 µM,"HemSCs [1]; Homo sapiens, read-out: inhibition of HemSCs proliferation",55%
same,inhibition of microvessel density (in words),"HemSCs [6]; HemSCs pre-treated in vitro three days, washed out, injected with untreated cbEPC",did not
CO[C@H]1C[C@@H]2CC[C@@H](C)[C@@](O)(O2)C(=O)C(=O)N2CCCC[C@H]2C(=O)O[C@H]([C@H](C)C[C@@H]2CC[C@@H](OCCO)[C@H](OC)C2)CC(=O)[C@H](C)/C=C(\C)[C@@H](O)[C@@H](OC)C(=O)[C@H](C)C[C@H](C)/C=C/C=C/C=C/1C [everolimus],vascularization of Matrigel implants / formation of blood vessels (MVD),[5],significantly inhibited
CO[C@H]1C[C@@H]2CC[C@@H](C)[C@@](O)(O2)C(=O)C(=O)N2CCCC[C@H]2C(=O)O[C@H]([C@H](C)C[C@@H]2CC[C@@H](OC(=O)C(C)(CO)CO)[C@H](OC)C2)CC(=O)[C@H](C)/C=C(\C)[C@@H](O)[C@@H](OC)C(=O)[C@H](C)C[C@H](C)/C=C/C=C/C=C/1C [temsirolimus],vascularization of Matrigel implants / formation of blood vessels (MVD),[5],significantly inhibited

# — patent publication US9737514B2, “Methods and compositions for the treatment of proliferative vascular disorders” (Children's Medical Center Corporation, priority 2011, dated 2017)
